{
  "source": "patent US12372525B2",
  "about": "(priority 2013, dated 2025)",
  "key": {"[1]": {"molecular_target": "purified influenza H3N2 neuraminidase (Influenza A virus, UniProt O91745)", "sequence (O91745 whole entry, looked up)": "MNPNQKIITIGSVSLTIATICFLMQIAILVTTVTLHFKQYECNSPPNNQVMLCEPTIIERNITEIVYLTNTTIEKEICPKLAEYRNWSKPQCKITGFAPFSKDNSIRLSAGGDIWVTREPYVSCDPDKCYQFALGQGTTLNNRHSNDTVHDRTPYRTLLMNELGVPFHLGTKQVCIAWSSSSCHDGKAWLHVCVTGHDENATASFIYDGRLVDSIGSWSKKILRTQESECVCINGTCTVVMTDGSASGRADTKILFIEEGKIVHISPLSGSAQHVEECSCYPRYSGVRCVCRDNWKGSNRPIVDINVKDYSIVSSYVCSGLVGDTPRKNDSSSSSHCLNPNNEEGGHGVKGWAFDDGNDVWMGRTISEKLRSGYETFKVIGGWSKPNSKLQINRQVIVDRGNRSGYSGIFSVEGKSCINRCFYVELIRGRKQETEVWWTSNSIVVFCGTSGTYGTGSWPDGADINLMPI", "assay_type": "biochemical"}, "A/Perth/211/2001 WT": {"system": "A/Perth/211/2001 WT", "assay_type": "biochemical"}, "seasonal flu": {"system": "seasonal flu", "conditions": "in vivo; cited from earlier work"}},
  "data": [
    {"compound": "CC(=O)NC1C(O)CC(Oc2ccc(CCC(=O)C(F)(F)F)cc2)(C(=O)[O-])OC1C(O)C(O)CO.[Na+]", "note": "(stereo not shown) [NANA-CF3]", "values": [
      {"measurement": "level of detection (LOD) of neuraminidase with this substrate", "setting": "[1]", "value": "about 10 pM"}
    ]},
    {"compound": "CCOC(=O)C1=C[C@@H](OC(CC)CC)[C@H](NC(C)=O)[C@@H](N)C1", "note": "[Oseltamivir]", "values": [
      {"measurement": "Inhibition value", "setting": "A/Perth/211/2001 WT", "value": "1.48/1.34"},
      {"measurement": "effective in prophylaxis against seasonal flu", "setting": "seasonal flu", "value": 80, "unit": "%"}
    ]},
    {"compound": "CC(=O)N[C@H]1[C@H]([C@H](O)[C@H](O)CO)OC(C(=O)O)=C[C@@H]1N=C(N)N", "note": "[Zanamivir]", "values": [
      {"measurement": "effective in prophylaxis against seasonal flu", "setting": "seasonal flu", "value": 80, "unit": "%"}
    ]}
  ]
}
